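Each compound was tested at five concentrations against cells in 96-well plates for 48 hours. GI50 is the concentration that inhibits growth by half. TGI denotes the concentration required for complete inhibition of growth.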
How the values were obtained:
Test in all cases: inhibition of tumour cell growth, NCI panel, 48 h
786-0 renal = system: 786-0 renal
DU-145 prostate = system: DU-145 prostate
EKVX NSCLC = system: EKVX NSCLC
HOP-92 NSCLC = system: HOP-92 NSCLC
MCF7 breast = system: MCF7 breast
MDA-MB-231 breast = system: MDA-MB-231 breast
OVCAR-4 ovarian = system: OVCAR-4 ovarian
SF-295 CNS = system: SF-295 CNS
UACC-62 melanoma = system: UACC-62 melanoma
RXF 393 renal = system: RXF 393 renal

Compound	TGI (786-0 renal) [µM]	TGI (DU-145 prostate) [µM]	TGI (EKVX NSCLC) [µM]	TGI (HOP-92 NSCLC) [µM]	TGI (MCF7 breast) [µM]	TGI (MDA-MB-231 breast) [µM]	TGI (OVCAR-4 ovarian) [µM]	TGI (SF-295 CNS) [µM]	TGI (UACC-62 melanoma) [µM]	GI50 (DU-145 prostate) [µM]	GI50 (EKVX NSCLC) [µM]	GI50 (HOP-92 NSCLC) [µM]	GI50 (MCF7 breast) [µM]	GI50 (MDA-MB-231 breast) [µM]	GI50 (SF-295 CNS) [µM]	GI50 (UACC-62 melanoma) [µM]	TGI (RXF 393 renal) [µM]
C[C@@H]1CC[C@]2(C(=O)O)CC[C@]3(C)C(=CC[C@@H]4[C@@]5(C)CC[C@H](O)C(C)(C)[C@@H]5CC[C@]43C)[C@@H]2[C@]1(C)O	18.7	21.1	33	20.7	35.7	22.6	30.5	10.6	10.1	–	–	–	–	–	–	–	–
O=C1c2ccccc2-c2c1c1ccccc1c(=O)n2CCNCCNCCNCCn1c2c(c3ccccc3c1=O)C(=O)c1ccccc1-2	–	1.76	2.81	> 100	0.298	1.01	–	7.58	1.54	0.33	1.28	2.9	0.0329	0.136	1.4	0.379	–
Nc1nc(SCCc2ccccc2)c2[nH]cnc2n1	> 100	> 100	78.8	> 100	–	> 100	> 100	> 100	> 100	–	–	–	–	–	–	–	> 100
S=C1Nc2ccccc2SC1c1ccccc1 (stereo unspecified)	> 100	> 100	> 100	–	> 100	> 100	> 100	> 100	> 100	–	–	–	–	–	–	–	92.5
CC1(C)N=[N+]([O-])C1(C)C	> 100	> 100	> 100	–	> 100	> 100	> 100	–	> 100	–	–	–	–	–	–	–	> 100
Cc1n[nH]c(=O)n1/N=C/c1ccc(Cl)cc1	> 100	> 100	72.5	> 100	–	–	> 100	> 100	> 100	–	–	–	–	–	–	–	72.3
Cc1ccc(-c2n[nH]c(=O)n2N2C(=O)c3ccccc3C2=O)cc1	> 100	> 100	–	–	> 100	> 100	–	> 100	> 100	–	–	–	–	–	–	–	> 100
CCOC(=O)C1(C/C=C/CBr)Cc2ccccc2C1=O (stereo unspecified)	25.8	28.3	28.7	–	8.73	28.9	6.02	22.1	5.44	–	–	–	–	–	–	–	6.32
c1csc(-c2ccc(-c3cccc4nsnc34)s2)c1	> 100	> 100	> 100	–	> 100	> 100	> 100	> 100	> 100	–	–	–	–	–	–	–	> 100
CC1CCC(n2c3cnccc3c3cnc(Nc4ccc5c(n4)CCN(C(=O)CO)C5)nc32)CC1 (stereo unspecified)	–	–	> 100	> 100	> 100	> 100	–	–	–	–	> 100	> 100	0.127	1.38	–	–	–
N#Cc1c(N2CCCC2)ncn(-c2ccccc2)c1=O	> 100	> 100	> 100	> 100	–	> 100	> 100	> 100	> 100	–	–	–	–	–	–	–	> 100
COC(=O)C1SC(SC)=NC12c1ccccc1Nc1ccccc12 (stereo unspecified)	> 100	> 100	> 100	69.8	82.7	–	> 100	> 100	34	–	–	–	–	–	–	–	> 100
C#CCNC(CS)C(=O)O (stereo unspecified)	> 100	> 100	> 100	> 100	–	> 100	> 100	> 100	> 100	–	–	–	–	–	–	–	> 100
Cc1ccc(Cl)c2[nH]c(-c3ccccc3)cc(=O)c12	> 100	> 100	45	–	34.6	> 100	> 100	> 100	> 100	–	–	–	–	–	–	–	> 100
COCO[C@@H]1C[C@H]2C(=O)Nc3ccccc3C(=O)N2C1	> 100	> 100	> 100	–	> 100	> 100	> 100	> 100	> 100	–	–	–	–	–	–	–	41.7
CCOC(=O)c1cn2c(n1)sc1cccc(C)c12	> 100	> 100	> 100	–	> 100	> 100	–	> 100	> 100	–	–	–	–	–	–	–	> 100
[N-]=[N+]=NC[C@H]1OCO[C@H](CN=[N+]=[N-])[C@@H](OCCOCCCl)[C@@H]1OCCOCCCl	> 100	> 100	> 100	–	> 100	> 100	> 100	> 100	> 100	–	–	–	–	–	–	–	> 100
CC(C)(C)N1CSC(=S)N(Cc2ccco2)C1	11.5	15.5	30.2	12.1	14.3	–	26.7	31.5	20	–	–	–	–	–	–	–	19.4
COc1ccc(N/N=C2\CCOc3ccc(C)cc3C2=O)cc1	41.8	> 100	> 100	> 100	> 100	> 100	> 100	> 100	80.4	–	–	–	–	–	–	–	–
CN1CCc2cc(N)cc3c2C1Cc1ccc(O)c(O)c1-3 (stereo unspecified)	> 100	> 100	> 100	> 100	–	> 100	> 100	> 100	70.4	–	–	–	–	–	–	–	> 100
Nn1c(-c2ccccc2)nn(C(=O)c2ccccc2)c1=O	> 100	> 100	> 100	> 100	> 100	> 100	> 100	> 100	–	–	–	–	–	–	–	–	> 100
Cc1nc2n(c1/C=C1/C(=O)Nc3cccc(Cl)c31)CCS2	> 100	> 100	> 100	66.8	> 100	52.5	–	> 100	> 100	–	–	–	–	–	–	–	50.6
O=C1CCCc2cc3c(cc21)CC1(Cc2ccccc2C1)C3	29.6	–	> 100	53	61.2	46.6	63.9	21.5	> 100	–	–	–	–	–	–	–	82.5
